Assay results: patent US20240279239A1, “COMPOUNDS AND METHODS FOR MODULATING SPLICING” (REMIX THERAPEUTICS INC., priority 2020, published 2024)
Counter-ions that a name gives are not always drawn. Like-named read-outs stand apart in the source and are kept apart here.

Legend:
Type in all cases: cell-based
HTT [1] = assay: RT-qPCR canonical junction panel assay, HTT; conditions: gene panel, read-out: HTT IC50 (decrease in CJ mRNA levels)
Description: (§1) Example 44: Exemplary splicing assay for monitoring expression levels of splice variants Compounds described herein were used to modulate RNA transcript abundance in cells. The expression of a target mRNA was measured by detecting the formation of an exon-exon junction in the canonical transcript (CJ). A compound mediated exon-inclusion event was detected by observing an increase in formation of a new junction with an alternative exon (AJ). Real-time qPCR assays were used to detect these splicing switches and interrogate the potency of various compounds towards different target genes. A high-throughput real time quantitative PCR (RT-qPCR) assay was developed to measure these two isoforms of the mRNA (CJ and AJ) for an exemplary gene, HTT, together with a control housekeeping gene, GAPDH or GUSB or PPIA, used for normalization. Briefly, the A673 or K562 cell line was treated with various compounds described herein (e.g., compounds of Formula (I)). After treatment, the levels of the HTT mRNA targets were determined from each sample of cell lysate by cDNA synthesis followed by qPCR.
(§2) The A673 cell line was cultured in DMEM with 10% FBS. Cells were diluted with full growth media and plated in a 96-well plate (15,000 cells in 100 µl media per well). The plate was incubated at 37° C. with 5% CO2 for 24 hours to allow cells to adhere. An 11-point 3-fold serial dilution of the compounds was made in DMSO then diluted in media in an intermediate plate. Compounds were transferred from the intermediate plate to the cell plate with the top dose at a final concentration of 10 uM in the well. Final DMSO concentration was kept at or below 0.25%. The cell plate was returned to the incubator at 37° C. with 5% CO2 for an additional 24 hours.
(§3) The K562 cell line was cultured in IMDM with 10% FBS. For K562, cells were diluted with full growth media and plated in either a 96-well plate (50,000 cells in 50 uL media per well) or a 384-well plate (8,000-40,000 cells in 45 uL media per well). An 11-point 3-fold serial dilution of the compounds were made in DMSO then diluted in media in an intermediate plate. Compound was transferred from the intermediate plate to the cell plate with the top dose at a final concentration of 10 uM in the well. Final DMSO concentration was kept at or below 0.25%. Final volume was 100 uL for 96-well plate and 50 uL for 384-well plate. The cell plate was then placed in an incubator at 37° C. with 5% CO2 for 24 hours.
(§4) The cells were then gently washed with 50 uL-100 uL cold PBS before proceeding to addition of lysis buffer. 30 uL-50 uL of room temperature lysis buffer with DNAse I (and optionally RNAsin) was added to each well. Cells were shaken/mixed thoroughly at room temperature for 5-10 minutes for lysis to take place and then 3 uL-5 uL of room temperature stop solution was added and wells were shaken/mixed again. After 2-5 minutes, the cell lysate plate was transferred to ice for RT-qPCR reaction setup. The lysates could also be frozen at ˜80° C. for later use.
(§5) In some cases, a direct lysis buffer was used. An appropriate volume of 3× lysis buffer (10 mM Tris, 150 mM NaCl, 1.5%-2.5% Igepal and 0.1-1 U/uL RNAsin, pH 7.4) was directly added to either K562 or A673 cells in media and mixed by pipetting 3 times. The plates were then incubated at room temperature with shaking/rocking for 20-50 minutes to allow for lysis to take place. After this time, the cell lysate plate was transferred to ice to set up for the RT-qPCR reactions. The lysates could also be frozen at −80° C. for later use.
(§6) To set up 10 uL RT-qPCR reactions, cell lysates were transferred to 384-well qPCR plates containing the master mix according to the table below. The plates were sealed, gently vortexed, and spun down before the run. The volumes were adjusted accordingly in some instances where the reaction was carried in 20 uL. The table below summarizes the components of the RT-qPCR reactions: […]

HTT [2] = assay: RT-qPCR splicing assay for HTT mRNA isoforms (canonical junction CJ and alternative junction AJ); conditions: A673 or K562 cell line, 24 hours treatment
Description: as §1, §2, §3, §4, §5, §6

SMN2 = assay: RT-qPCR canonical junction panel assay, SMN2; conditions: gene panel, read-out: SMN2 IC50 (decrease in CJ mRNA levels)
Description: as §1, §2, §3, §4, §5, §6

Target C = assay: RT-qPCR canonical junction panel assay, Target C; conditions: gene panel, read-out: Target C IC50 (decrease in CJ mRNA levels)
Description: as §1, §2, §3, §4, §5, §6

[3] = decrease in CJ mRNA levels, read-out: HTT CJ AC50
[4] = increase in AJ mRNA, read-out: HTT AJ AC50

IC50 (HTT [1]) [nM] | IC50 (SMN2) [nM] | IC50 (Target C) [nM] | SMILES | AC50 (HTT [2]; [3]) [nM] | AC50 (HTT [2]; [4]) [nM]
1000 to 10000 | 1000 to 10000 | 1000 to 10000 | Cc1cn2cc(-c3nn4c(=O)cc(N5CCN(C)CC5)nc4s3)cc(F)c2n1 [Compound 217, 2-(8-fluoro-2-methylimidazo[1,2-α]pyridin-6-yl)-7-(4-methylpiperazin-1-yl)-5H-[1,3,4]thiadiazolo[3,2-α]pyrimidin-5-one] | 1000 to 10000 | 1000 to 10000
> 10000 | 1000 to 10000 | > 10000 | Cc1cn2cc(-c3cn4c(=O)cc(N5CCNCC5)nc4s3)cc(F)c2n1 [Compound 213, 2-(8-fluoro-2-methylimidazo[1,2-α]pyridin-6-yl)-7-(piperazin-1-yl)-5H-thiazolo[3,2-α]pyrimidin-5-one] | > 10000 | > 10000
1000 to 10000 | 100 to 1000 | > 10000 | Cc1cn2cc(-c3nn4c(=O)cc(N5CCNCC5)nc4s3)cc(F)c2n1 [Compound 214, 2-(8-fluoro-2-methylimidazo[1,2-α]pyridin-6-yl)-7-(piperazin-1-yl)-5H-[1,3,4]thiadiazolo[3,2-α]pyrimidin-5-one] | 1000 to 10000 | > 10000
1000 to 10000 | 1000 to 10000 | 1000 to 10000 | Cc1cn2cc(-c3cc(=O)n4nc(N5CCNC6(CC6)C5)sc4n3)cc(F)c2n1 [Compound 209, 7-(8-fluoro-2-methylimidazo[1,2-α]pyridin-6-yl)-2-(4,7-diazaspiro[2.5]octan-7-yl)-5H-[1,3,4]thiadiazolo[3,2-α]pyrimidin-5-one] | 1000 to 10000 | 1000 to 10000
1000 to 10000 | 100 to 1000 | 1000 to 10000 | Cc1cc(-c2nn3c(=O)cc(N4CCNCC4)nc3s2)cc2cn(C)nc12 [Compound 206, 2-(2,7-dimethyl-2H-indazol-5-yl)-7-(piperazin-1-yl)-5H-[1,3,4]thiadiazolo[3,2-α]pyrimidin-5-one] | 1000 to 10000 | 1000 to 10000

The next lines start with the compound.

SMILES | IC50 (HTT [1]) [nM] | IC50 (SMN2) [nM] | IC50 (Target C) [nM] | AC50 (HTT [2]; [3]) [nM] | AC50 (HTT [2]; [4]) [nM]
Cc1cc(-c2cc3ncn(C4CCNCC4)c(=O)c3s2)cc2cn(C)nc12 [Compound 236, 6-(2,7-dimethyl-2H-indazol-5-yl)-3-(piperidin-4-yl)thieno[3,2-d]pyrimidin-4(3H)-one] | < 100 | < 100 | 100 to 1000 | < 100 | 100 to 1000
Cc1cn2cc(-c3cn4c(=O)cc(N5CCNC6(CC6)C5)nc4s3)cc(F)c2n1 [Compound 208, 2-(8-fluoro-2-methylimidazo[1,2-α]pyridin-6-yl)-7-(4,7-diazaspiro[2.5]octan-7-yl)-5H-thiazolo[3,2-α]pyrimidin-5-one] | 1000 to 10000 | 1000 to 10000 | 1000 to 10000 | 1000 to 10000 | 1000 to 10000
Cc1cn2nc(-c3cc(=O)n4cc(N(C)C5CC(C)(C)NC(C)(C)C5)sc4n3)cc(C)c2n1 [Compound 205, 7-(2,8-dimethylimidazo[1,2-b]pyridazin-6-yl)-2-(methyl(2,2,6,6-tetramethylpiperidin-4-yl)amino)-5H-thiazolo[3,2-α]pyrimidin-5-one] | 1000 to 10000 | 1000 to 10000 | 1000 to 10000 | 1000 to 10000 | 1000 to 10000
Cc1cn2cc(-c3nc4ncn(C5CCNCC5)c(=O)c4s3)cc(F)c2n1 [Compound 232, 2-(8-fluoro-2-methylimidazo[1,2-α]pyridin-6-yl)-6-(piperidin-4-yl)thiazolo[4,5-d]pyrimidin-7(6H)-one] | < 100 | < 100 | 100 to 1000 | < 100 | < 100
Cc1cn2nc(-c3nc4ncn(C5CCNCC5)c(=O)c4s3)cc(C)c2n1 [Compound 231, 2-(2,8-dimethylimidazo[1,2-b]pyridazin-6-yl)-6-(piperidin-4-yl)thiazolo[4,5-d]pyrimidin-7(6H)-one] | 100 to 1000 | 1000 to 10000 | 1000 to 10000 | 100 to 1000 | 100 to 1000
Cc1cn2cc(-n3cnc4nc(N(C)C5CC(C)(C)NC(C)(C)C5)sc4c3=O)cc(F)c2n1 [Compound 227, 6-(8-fluoro-2-methylimidazo[1,2-α]pyridin-6-yl)-2-(methyl(2,2,6,6-tetramethylpiperidin-4-yl)amino)thiazolo[4,5-d]pyrimidin-7(6H)-one, formate] | > 10000 | > 10000 | > 10000 | > 10000 | > 10000
Cc1cc(-c2nc3ncn(C4CCNCC4)c(=O)c3s2)cc2cn(C)nc12 [Compound 233, 2-(2,7-dimethyl-2H-indazol-5-yl)-6-(piperidin-4-yl)thiazolo[4,5-d]pyrimidin-7(6H)-one] | < 100 | < 100 | 100 to 1000 | < 100 | < 100
Cc1cn2cc(-c3nn4c(=O)cc(N(C)C5CC(C)(C)NC(C)(C)C5)nc4s3)cc(F)c2n1 [Compound 215, 2-(8-fluoro-2-methylimidazo[1,2-α]pyridin-6-yl)-7-(methyl(2,2,6,6-tetramethylpiperidin-4-yl)amino)-5H-[1,3,4]thiadiazolo[3,2-α]pyrimidin-5-one] | 1000 to 10000 | 100 to 1000 | 1000 to 10000 | 1000 to 10000 | 1000 to 10000
Cc1cn2cc(-n3cnc4nc(N5CCN(C)CC5)sc4c3=O)cc(F)c2n1 [Compound 228, 6-(8-fluoro-2-methylimidazo[1,2-α]pyridin-6-yl)-2-(4-methylpiperazin-1-yl)thiazolo[4,5-d]pyrimidin-7(6H)-one] | 1000 to 10000 | 1000 to 10000 | 1000 to 10000 | 1000 to 10000 | 1000 to 10000
Cc1cc(-c2cc3ncn(C4CCN(C)CC4)c(=O)c3s2)cc2cn(C)nc12 [Compound 237, 6-(2,7-dimethyl-2H-indazol-5-yl)-3-(1-methylpiperidin-4-yl)thieno[3,2-d]pyrimidin-4(3H)-one] | 100 to 1000 | < 100 | 1000 to 10000 | 100 to 1000 | 100 to 1000
Cc1cn2cc(-c3cc(=O)n4nc(N5CCN(C)CC5)sc4n3)cc(F)c2n1 [Compound 159, 7-(8-fluoro-2-methylimidazo[1,2-α]pyridin-6-yl)-2-(4-methylpiperazin-1-yl)-5H-[1,3,4]thiadiazolo[3,2-α]pyrimidin-5-one] | 1000 to 10000 | 1000 to 10000 | 1000 to 10000 | 1000 to 10000 | 1000 to 10000
